Where two headings read alike, the source gives them in different places. Where a SMILES comes first, the peptide text is derived from it. The star is where a group is joined. Cbz = O=C(OCc1ccccc1)*; CH2F = FC*
How the values were obtained:
HCV replicon = test: HCV replication in HCV replicon cells (Northern blot of HCV RNA); type: cell-based; conditions: 10^5 IU/ml overnight
Method: (§1) FIG. 7A-7B. SPIK in the HCV expressing cells. SPIK RNA was detected in the cells with/without HCV replicon as before. HCV RNA was defined by the hybridization of membrane with radio-labeled probe specified HCV.
(§2) FIG. 7B—HCV replicon cells were incubated with HCV polymerase inhibitor 888 (2 mM) 2 days (Lines 3 & 4 duplicate) and 10^5 IU/ml interferon-a overnight (Lines 5 & 6 duplicate) or left untreated (Line 1 & 2 duplicate). The suppressions of HCV RNA and SPIK RNA then were analyzed by Northern blot as before. The smear detected by HCV probe under the band of HCV RNA probably was the replication form of HCV.
(§3) Over-expression of SPIK RNA in G54 cells can be abrogated by inhibition of HCV replication. Treatment of HCV replicon cells with either 2 mM of the HCV polymerase inhibitor 888 for two days or 10^5 IU/ml interferon-a overnight has reduced HCV replication by approximately 90% [FIG. 7B, lane 3-6]. This is consistent with previous reports of these antiviral agents (55, 56).

SPIK RNA = SPIK RNA level in G54 HCV replicon cells after antiviral treatment; type: cell-based, human; conditions: 10^5 IU/ml overnight
Method: as §1, §2, §3

Huh7T cells = test: Etoposide induced CDCA, annexin stain, Huh7T cells; type: cell-based, human; conditions: Huh7T cell, 40 hours treatment
Method: (§4) FIG. 5A. S2-3 and Huh7T cells were treated with CDCA inducer 400 μM etoposide. After 40 hours, the cells apoptosis was examined in microscope and stained with annexin.
(§5) 10^5 S2-3 and Huh7T cells were seeded in 60 mm dishes. When the cell reached 90% confluent, CDCA inducer etoposide was added. After 28-40 hours, the cell shrinkage, blebbing and detachment from culture was found in both cell lines. At the same time, the strong fluorescence stain by annexin was also observed in both cell lines [FIG. 5A]. The amount of apoptotic cells in two cell lines was very similar. Around 62% S2-3 cell was stained by annexin, while 58% of Huh7T cell was stained after 40 hours treatment [data not shown].

S2-3 cells = test: Etoposide induced CDCA, annexin stain, S2-3 cells; type: cell-based, human; conditions: S2-3 cell, 40 hours treatment
Method: as §4, §5

caspase 3 = test: Caspase 3 activity in S2-3 and Huh7T cells; type: cell-based, human; conditions: 40 hours treatment, caspase 3 kit
Method: FIG. 5B. The activation of caspase 3 (CDCA) in S2-3 cells treated with etoposide but not BFA/CHX/Z-VAD. The S2-3 cell and its parental cell Huh7T were either treated with SPDCA inducer BFA/CHX/ZVAD or CDCA inducer etoposide. The caspase activity was determined after […] treatment by Caspase 3 detection kit (Biovision, Mountain View, Calif.).
The same level of apoptosis induced by etoposide in S2-3 cell and Huh7T cell was confirmed by the examination of caspase 3 activity in these cells. After 40 hours treatment, all cells were lysed in […] lysis buffer. […] lysate of each sample was analyzed for caspase 3 activity test using caspase 3 detected kits [Biovision, Mountain View, Calif.]. […] Additionally, the activity of caspase3 was not increased in the cells, in which SPDCA was induced by BFA/CHX, even by double doses [FIG. 5B, B/C/ZX2].

HepG2.215 and G54 = test: Etoposide induced CDCA in HepG2.215 and G54 cells; type: cell-based, human; conditions: HepG2.215 and G54, data not shown
Method: To study the influence of HCV replication upon SPDCA, G54 and Huh7T cells (its parent cell) were seeded in a 60 mm dish. SPDCA was induced by BFA/CHX/Z-VAD. […] The insensitivity of HCV replicon cell to SPDCA was also seen subsequently by annexin staining. Compared to the parental cells, much fewer HCV expressing cells were stained by annexin after being treated with SPDCA inducers BFA/CHX/Z-VAD [FIG. 8C, Annexin]. DNA fragmentation study also support that the HCV expressing cells were more resistant to apoptosis. 70 hours treatment of BFA/CHX/Z-VAD obviously triggered the DNA fragmentation in Huh7T cell, but not in G54 cells [FIG. 8D]. […] In contrast, both HepG2.215 and G54 are sensitive to CDCA induced by etoposide [data not shown].

prostate tumor cells = conditions: cited from earlier work

For interferon-a, the “reduction of HCV replication” value (HCV replicon) was “approximately 90%” and the SPIK level (SPIK RNA) was “correspondingly decreased with HCV RNA”.

For `COc1cc([C@@H]2c3cc4c(cc3[C@@H](O[C@@H]3O[C@@H]5CO[C@@H](C)O[C@H]5[C@H](O)[C@H]3O)[C@H]3COC(=O)[C@H]23)OCO4)cc(OC)c1O` [etoposide], the “cells stained by annexin” value (Huh7T cells) was 58%, the “cells stained by annexin” value (S2-3 cells) was “Around 62%” and the “caspase 3 activity” value (caspase 3) was “at the same level in both cells”. The “sensitivity to CDCA” value (HepG2.215 and G54) was “sensitive”.

For `NCCc1ccc(S(=O)(=O)F)cc1` [AEBSF, 4-2-aminoethyl-benzenesulfonyl fluoride], the “block of FADD induced apoptosis” value (prostate tumor cells; combining use of Z-VAD and AEBSF) is listed as “completely blocked”.

For `CC(NC(=O)C(NC(=O)OCc1ccccc1)C(C)C)C(=O)NC(CC(=O)O)C(=O)CF` (stereo not drawn) [Z-VAD] (Cbz-Val-Ala-Asp-CH2F; configuration not given here), the “caspase 3 activity” value (caspase 3) is listed as “kept unchanged” and the “block of FADD induced apoptosis” value (prostate tumor cells; alone) is listed as “unable to be completely blocked”.
